ChEMBL document CHEMBL3097995, “NAD-based inhibitors with anticancer potential” (Bioorg Med Chem Lett, 2014)

Tested on: Plasma
Test: Metabolic stability in human plasma
Assay type: ADME, cell-free
Settings: not given

SMILES	Stability
COc1c(C)c2c(c(O)c1C/C=C(\C)CCC(=O)OC[C@@H]1O[C@H](n3cnc4c(N)ncnc43)[C@@H](O)[C@H]1O)C(=O)OC2	Unstable
COc1c(C)c2c(c(O)c1C/C=C(\C)CCC(=O)OCCN1CCOCC1)C(=O)OC2 [MYCOPHENOLATE MOFETIL]	Unstable

Tested on: not listed separately
Test: Drug degradation in human plasma after 24 hrs
Assay type: ADME, cell-free
Settings: read-out: Drug degradation

SMILES	metabolised at 24 h
COc1c(C)c2c(c(O)c1C/C=C(\C)CCC(=O)OC[C@H]1O[C@@H](n3cnc4c(N)ncnc43)[C@H](O)[C@@H]1O)C(=O)OC2	20%

Tested on: PC-3
Test: Antiproliferative activity against human PC3 cells
Assay type: functional, cell-based
Settings: not given

SMILES	IC50
COc1c(C)c2c(c(O)c1C/C=C(\C)CCC(=O)OC[C@H]1O[C@@H](n3cnc4c(N)ncnc43)[C@H](O)[C@@H]1O)C(=O)OC2	20000 nM

Tested on: DU-145
Test: Antiproliferative activity against human DU145 cells
Assay type: functional, cell-based
Settings: not given

SMILES	IC50
COc1c(C)c2c(c(O)c1C/C=C(\C)CCC(=O)OC[C@@H]1O[C@H](n3cnc4c(N)ncnc43)[C@@H](O)[C@H]1O)C(=O)OC2	1500 nM
COc1c(C)c2c(c(O)c1C/C=C(\C)CCC(=O)OC[C@H]1O[C@@H](n3cnc4c(N)ncnc43)[C@H](O)[C@@H]1O)C(=O)OC2	5800 nM

Organism: Homo sapiens
Test: Selectivity ratio of Ki for IMPDH1 (unknown origin) to Ki for IMPDH2 (unknown origin)
Settings: not given

SMILES	Ratio Ki
COc1c(C)c2c(c(O)c1CCOP(=O)(O)CP(=O)(O)OC[C@H]1O[C@@H](n3cnc4c(N)cccc43)[C@H](O)[C@@H]1O)C(=O)OC2	3

Organism: Homo sapiens
Test: Selectivity ratio of Ki for IMPDH2 (unknown origin) to Ki for IMPDH1 (unknown origin)
Settings: not given

SMILES	Ratio Ki
COc1c(C)c2c(c(O)c1CCOP(=O)(O)CP(=O)(O)OC[C@H]1O[C@@H](n3cnc4c(N)nc(-c5ccncc5)nc43)[C@H](O)[C@@H]1O)C(=O)OC2	23

Molecular target: Inosine-5'-monophosphate dehydrogenase 1 (Homo sapiens, UniProt P20839)
Sequence (P20839 whole entry): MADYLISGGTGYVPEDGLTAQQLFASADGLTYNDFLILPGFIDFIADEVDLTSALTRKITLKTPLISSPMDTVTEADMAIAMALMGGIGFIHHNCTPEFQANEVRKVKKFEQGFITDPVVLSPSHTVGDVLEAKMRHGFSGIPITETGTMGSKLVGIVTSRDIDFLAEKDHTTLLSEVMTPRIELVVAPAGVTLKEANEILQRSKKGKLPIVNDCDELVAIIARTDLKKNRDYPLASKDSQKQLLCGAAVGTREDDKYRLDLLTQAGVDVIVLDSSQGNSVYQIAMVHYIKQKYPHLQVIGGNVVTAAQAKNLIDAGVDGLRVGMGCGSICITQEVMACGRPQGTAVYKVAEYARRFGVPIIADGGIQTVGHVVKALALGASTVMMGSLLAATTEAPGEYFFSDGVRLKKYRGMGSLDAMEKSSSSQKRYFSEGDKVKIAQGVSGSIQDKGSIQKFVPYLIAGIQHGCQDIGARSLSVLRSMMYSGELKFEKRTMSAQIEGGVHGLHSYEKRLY
Test: Inhibition of IMPDH1 (unknown origin)
Settings: not given

SMILES	Ki
COc1c(C)c2c(c(O)c1CCOP(=O)(O)CP(=O)(O)OC[C@H]1O[C@@H](n3cnc4c(N)nc(-c5ccncc5)nc43)[C@H](O)[C@@H]1O)C(=O)OC2	0.6 nM
COc1c(C)c2c(c(O)c1CCOP(=O)(O)CP(=O)(O)OC[C@H]1O[C@@H](n3cnc4c(N)nc(-c5ccco5)nc43)[C@H](O)[C@@H]1O)C(=O)OC2	63 nM
COc1c(C)c2c(c(O)c1CCOP(=O)(O)CP(=O)(O)OC[C@H]1O[C@@H](n3c(Br)nc4c(N)ncnc43)[C@H](O)[C@@H]1O)C(=O)OC2	39 nM
COc1c(C)c2c(c(O)c1CCOP(=O)(O)CP(=O)(O)OC[C@H]1O[C@@H](n3cnc4c([N+](=O)[O-])cccc43)[C@H](O)[C@@H]1O)C(=O)OC2	876 nM
COc1c(C)c2c(c(O)c1C/C=C(\C)CCC(=O)OC[C@@H]1O[C@H](n3cnc4c(N)ncnc43)[C@@H](O)[C@H]1O)C(=O)OC2	2550 nM
COc1c(C)c2c(c(O)c1CCOP(=O)(O)CP(=O)(O)OC[C@H]1O[C@@H](n3cnc4c(N)cccc43)[C@H](O)[C@@H]1O)C(=O)OC2	491 nM
COc1c(C)c2c(c(O)c1CCOP(=O)(O)CP(=O)(O)OC[C@H]1O[C@@H](n3cnc4c(N)nc(COCc5ccccc5)nc43)[C@H](O)[C@@H]1O)C(=O)OC2	70 nM
COc1c(C)c2c(c(O)c1CCOP(=O)(O)CP(=O)(O)OC[C@H]1O[C@@H](n3cnc4c(N)nc(-c5cccs5)nc43)[C@H](O)[C@@H]1O)C(=O)OC2	82 nM
COc1c(C)c2c(c(O)c1CCOP(=O)(O)CP(=O)(O)OC[C@H]1O[C@@H](n3cnc4c(N)nc(C(F)(F)F)nc43)[C@H](O)[C@@H]1O)C(=O)OC2	13 nM
COc1c(C)c2c(c(O)c1C/C=C(\C)CCC(=O)OC[C@H]1O[C@@H](n3cnc4c(N)ncnc43)[C@H](O)[C@@H]1O)C(=O)OC2	163 nM

Molecular target: Inosine-5'-monophosphate dehydrogenase 2 (Homo sapiens, UniProt P12268)
Test: Inhibition of IMPDH2 (unknown origin)
Settings: not given

SMILES	Ki
COc1c(C)c2c(c(O)c1CCOP(=O)(O)CP(=O)(O)OC[C@H]1O[C@@H](n3cnc4c(N)nc(-c5ccncc5)nc43)[C@H](O)[C@@H]1O)C(=O)OC2	14 nM
COc1c(C)c2c(c(O)c1CCOP(=O)(O)CP(=O)(O)OC[C@H]1O[C@@H](n3cnc4c(N)nc(-c5ccco5)nc43)[C@H](O)[C@@H]1O)C(=O)OC2	37 nM
COc1c(C)c2c(c(O)c1CCOP(=O)(O)CP(=O)(O)OC[C@H]1O[C@@H](n3c(Br)nc4c(N)ncnc43)[C@H](O)[C@@H]1O)C(=O)OC2	186 nM
COc1c(C)c2c(c(O)c1CCOP(=O)(O)CP(=O)(O)OC[C@H]1O[C@@H](n3cnc4c([N+](=O)[O-])cccc43)[C@H](O)[C@@H]1O)C(=O)OC2	749 nM
COc1c(C)c2c(c(O)c1C/C=C(\C)CCC(=O)OC[C@@H]1O[C@H](n3cnc4c(N)ncnc43)[C@@H](O)[C@H]1O)C(=O)OC2	231 nM
COc1c(C)c2c(c(O)c1CCOP(=O)(O)CP(=O)(O)OC[C@H]1O[C@@H](n3cnc4c(N)cccc43)[C@H](O)[C@@H]1O)C(=O)OC2	165 nM
COc1c(C)c2c(c(O)c1CCOP(=O)(O)CP(=O)(O)OC[C@H]1O[C@@H](n3cnc4c(N)nc(COCc5ccccc5)nc43)[C@H](O)[C@@H]1O)C(=O)OC2	44 nM
COc1c(C)c2c(c(O)c1CCOP(=O)(O)CP(=O)(O)OC[C@H]1O[C@@H](n3cnc4c(N)nc(-c5cccs5)nc43)[C@H](O)[C@@H]1O)C(=O)OC2	56 nM
COc1c(C)c2c(c(O)c1CCOP(=O)(O)CP(=O)(O)OC[C@H]1O[C@@H](n3cnc4c(N)nc(C(F)(F)F)nc43)[C@H](O)[C@@H]1O)C(=O)OC2	15 nM
COc1c(C)c2c(c(O)c1C/C=C(\C)CCC(=O)OC[C@H]1O[C@@H](n3cnc4c(N)ncnc43)[C@H](O)[C@@H]1O)C(=O)OC2	102 nM

Molecular target: not listed separately
Test: Binding affinity to human IMPDH
Settings: not given

SMILES	Ki
COc1c(C)c2c(c(O)c1C/C=C(\C)CCC(=O)O)C(=O)OC2 [MYCOPHENOLIC ACID]	10 nM

Tested on: HT-29
Test: Antiproliferative activity against human HT-29 cells
Assay type: functional, cell-based
Settings: not given

SMILES	IC50
COc1c(C)c2c(c(O)c1CCOP(=O)(O)CP(=O)(O)OC[C@H]1O[C@@H](n3cnc4c(N)nc(-c5ccncc5)nc43)[C@H](O)[C@@H]1O)C(=O)OC2	2000 nM
COc1c(C)c2c(c(O)c1CCOP(=O)(O)CP(=O)(O)OC[C@H]1O[C@@H](n3cnc4c(N)nc(-c5ccco5)nc43)[C@H](O)[C@@H]1O)C(=O)OC2	9800 nM
COc1c(C)c2c(c(O)c1CCOP(=O)(O)CP(=O)(O)OC[C@H]1O[C@@H](n3c(Br)nc4c(N)ncnc43)[C@H](O)[C@@H]1O)C(=O)OC2	> 100000 nM
COc1c(C)c2c(c(O)c1CCOP(=O)(O)CP(=O)(O)OC[C@H]1O[C@@H](n3cnc4c([N+](=O)[O-])cccc43)[C@H](O)[C@@H]1O)C(=O)OC2	> 100000 nM
COc1c(C)c2c(c(O)c1CCOP(=O)(O)CP(=O)(O)OC[C@H]1O[C@@H](n3cnc4c(N)cccc43)[C@H](O)[C@@H]1O)C(=O)OC2	> 100000 nM
COc1c(C)c2c(c(O)c1CCOP(=O)(O)CP(=O)(O)OC[C@H]1O[C@@H](n3cnc4c(N)nc(COCc5ccccc5)nc43)[C@H](O)[C@@H]1O)C(=O)OC2	> 100000 nM
COc1c(C)c2c(c(O)c1CCOP(=O)(O)CP(=O)(O)OC[C@H]1O[C@@H](n3cnc4c(N)nc(-c5cccs5)nc43)[C@H](O)[C@@H]1O)C(=O)OC2	46000 nM
COc1c(C)c2c(c(O)c1CCOP(=O)(O)CP(=O)(O)OC[C@H]1O[C@@H](n3cnc4c(N)nc(C(F)(F)F)nc43)[C@H](O)[C@@H]1O)C(=O)OC2	8700 nM

Tested on: HL-60
Test: Antiproliferative activity against human HL60 cells
Assay type: functional, cell-based
Settings: not given

SMILES	IC50
COc1c(C)c2c(c(O)c1C/C=C(\C)CCC(=O)OC[C@@H]1O[C@H](n3cnc4c(N)ncnc43)[C@@H](O)[C@H]1O)C(=O)OC2	2100 nM
COc1c(C)c2c(c(O)c1C/C=C(\C)CCC(=O)OC[C@H]1O[C@@H](n3cnc4c(N)ncnc43)[C@H](O)[C@@H]1O)C(=O)OC2	9300 nM

Tested on: K562
Test: Antiproliferative activity against human K562 cells
Assay type: functional, cell-based
Settings: not given

SMILES	IC50
COc1c(C)c2c(c(O)c1CCOP(=O)(O)CP(=O)(O)OC[C@H]1O[C@@H](n3cnc4c(N)nc(-c5ccncc5)nc43)[C@H](O)[C@@H]1O)C(=O)OC2	400 nM
COc1c(C)c2c(c(O)c1CCOP(=O)(O)CP(=O)(O)OC[C@H]1O[C@@H](n3cnc4c(N)nc(-c5ccco5)nc43)[C@H](O)[C@@H]1O)C(=O)OC2	800 nM
COc1c(C)c2c(c(O)c1CCOP(=O)(O)CP(=O)(O)OC[C@H]1O[C@@H](n3c(Br)nc4c(N)ncnc43)[C@H](O)[C@@H]1O)C(=O)OC2	48000 nM
COc1c(C)c2c(c(O)c1CCOP(=O)(O)CP(=O)(O)OC[C@H]1O[C@@H](n3cnc4c([N+](=O)[O-])cccc43)[C@H](O)[C@@H]1O)C(=O)OC2	> 100000 nM
COc1c(C)c2c(c(O)c1C/C=C(\C)CCC(=O)OC[C@@H]1O[C@H](n3cnc4c(N)ncnc43)[C@@H](O)[C@H]1O)C(=O)OC2	1600 nM
COc1c(C)c2c(c(O)c1CCOP(=O)(O)CP(=O)(O)OC[C@H]1O[C@@H](n3cnc4c(N)cccc43)[C@H](O)[C@@H]1O)C(=O)OC2	2500 nM
COc1c(C)c2c(c(O)c1CCOP(=O)(O)CP(=O)(O)OC[C@H]1O[C@@H](n3cnc4c(N)nc(COCc5ccccc5)nc43)[C@H](O)[C@@H]1O)C(=O)OC2	3000 nM
COc1c(C)c2c(c(O)c1CCOP(=O)(O)CP(=O)(O)OC[C@H]1O[C@@H](n3cnc4c(N)nc(-c5cccs5)nc43)[C@H](O)[C@@H]1O)C(=O)OC2	1500 nM
COc1c(C)c2c(c(O)c1CCOP(=O)(O)CP(=O)(O)OC[C@H]1O[C@@H](n3cnc4c(N)nc(C(F)(F)F)nc43)[C@H](O)[C@@H]1O)C(=O)OC2	1000 nM
COc1c(C)c2c(c(O)c1C/C=C(\C)CCC(=O)OC[C@H]1O[C@@H](n3cnc4c(N)ncnc43)[C@H](O)[C@@H]1O)C(=O)OC2	500 nM

Tested on: HeLa
Test: Antiproliferative activity against human HeLa cells
Assay type: functional, cell-based
Settings: not given

SMILES	IC50
COc1c(C)c2c(c(O)c1CCOP(=O)(O)CP(=O)(O)OC[C@H]1O[C@@H](n3cnc4c(N)nc(-c5ccncc5)nc43)[C@H](O)[C@@H]1O)C(=O)OC2	1000 nM
COc1c(C)c2c(c(O)c1CCOP(=O)(O)CP(=O)(O)OC[C@H]1O[C@@H](n3cnc4c(N)nc(-c5ccco5)nc43)[C@H](O)[C@@H]1O)C(=O)OC2	3000 nM
COc1c(C)c2c(c(O)c1CCOP(=O)(O)CP(=O)(O)OC[C@H]1O[C@@H](n3c(Br)nc4c(N)ncnc43)[C@H](O)[C@@H]1O)C(=O)OC2	> 100000 nM
COc1c(C)c2c(c(O)c1CCOP(=O)(O)CP(=O)(O)OC[C@H]1O[C@@H](n3cnc4c([N+](=O)[O-])cccc43)[C@H](O)[C@@H]1O)C(=O)OC2	> 100000 nM
COc1c(C)c2c(c(O)c1CCOP(=O)(O)CP(=O)(O)OC[C@H]1O[C@@H](n3cnc4c(N)cccc43)[C@H](O)[C@@H]1O)C(=O)OC2	25000 nM
COc1c(C)c2c(c(O)c1CCOP(=O)(O)CP(=O)(O)OC[C@H]1O[C@@H](n3cnc4c(N)nc(COCc5ccccc5)nc43)[C@H](O)[C@@H]1O)C(=O)OC2	11000 nM
COc1c(C)c2c(c(O)c1CCOP(=O)(O)CP(=O)(O)OC[C@H]1O[C@@H](n3cnc4c(N)nc(-c5cccs5)nc43)[C@H](O)[C@@H]1O)C(=O)OC2	12000 nM
COc1c(C)c2c(c(O)c1CCOP(=O)(O)CP(=O)(O)OC[C@H]1O[C@@H](n3cnc4c(N)nc(C(F)(F)F)nc43)[C@H](O)[C@@H]1O)C(=O)OC2	4500 nM
